Measured values taken from PubChem BioAssay AID624008 (Vanderbilt Specialized Chemistry Center, 2012).
Active and inactive are the calls of the source. No rule for the calls is given here.

Biological target: Phospholipase D1 (Homo sapiens) + Phospholipase D1 (Homo sapiens) (UniProt Q13393+Q13393)
Experiment: phospholipase D1 activity inhibition in cells – Calu-1 cells, Lib32, assay 1A (AID 624008)
Conditions: PLD1 cellular activity, percent of control, active compounds read low, concentration not given here

Phospholipase D1 (Homo sapiens) + Phospholipase D1 (Homo sapiens), sequence (Q13393 whole entry, looked up): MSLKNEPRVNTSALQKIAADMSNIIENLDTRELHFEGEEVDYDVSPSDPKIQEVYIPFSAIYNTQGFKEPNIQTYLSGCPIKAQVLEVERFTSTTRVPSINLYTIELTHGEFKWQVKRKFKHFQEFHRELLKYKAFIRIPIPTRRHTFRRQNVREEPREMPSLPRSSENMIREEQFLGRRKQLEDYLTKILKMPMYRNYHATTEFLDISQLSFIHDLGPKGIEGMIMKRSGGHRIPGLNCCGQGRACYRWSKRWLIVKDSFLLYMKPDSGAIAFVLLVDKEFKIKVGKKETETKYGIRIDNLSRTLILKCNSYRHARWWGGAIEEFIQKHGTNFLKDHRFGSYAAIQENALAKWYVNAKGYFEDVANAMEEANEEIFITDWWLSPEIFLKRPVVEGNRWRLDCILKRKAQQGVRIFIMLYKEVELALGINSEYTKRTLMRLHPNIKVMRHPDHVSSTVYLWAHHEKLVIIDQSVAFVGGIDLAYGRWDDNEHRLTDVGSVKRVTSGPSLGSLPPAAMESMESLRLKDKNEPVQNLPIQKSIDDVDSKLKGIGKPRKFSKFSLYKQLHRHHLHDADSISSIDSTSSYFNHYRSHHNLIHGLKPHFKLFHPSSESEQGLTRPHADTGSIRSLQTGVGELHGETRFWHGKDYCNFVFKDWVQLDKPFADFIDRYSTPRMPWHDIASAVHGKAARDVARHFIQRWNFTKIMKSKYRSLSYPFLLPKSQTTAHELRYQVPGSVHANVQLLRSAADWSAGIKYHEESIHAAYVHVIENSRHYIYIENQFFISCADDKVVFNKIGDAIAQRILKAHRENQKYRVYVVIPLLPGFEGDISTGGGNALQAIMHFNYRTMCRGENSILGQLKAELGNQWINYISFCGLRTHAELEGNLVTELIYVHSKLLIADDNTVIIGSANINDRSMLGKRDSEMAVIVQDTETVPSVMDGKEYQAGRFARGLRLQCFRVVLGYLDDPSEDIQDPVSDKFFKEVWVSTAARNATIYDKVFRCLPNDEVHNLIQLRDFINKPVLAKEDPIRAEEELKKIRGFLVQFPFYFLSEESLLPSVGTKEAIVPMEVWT
Phospholipase D1 (Homo sapiens) + Phospholipase D1 (Homo sapiens), sequence (Q13393 whole entry, looked up): as above

Structure (SMILES): COc1cc(C(=O)NCCN2CCC3(CC2)C(=O)NCN3c2cccc(F)c2)cc(OC)c1OC
- remaining activity: 113% (inactive)

Structure (SMILES): C[C@@H](CN1CCC2(CC1)C(=O)NCN2c1cccc(F)c1)NC(=O)c1c(F)cccc1F
- remaining activity: 75.1%

Structure (SMILES): O=C(NCCN1CCC2(CC1)C(=O)NCN2c1cccc(F)c1)c1cccc2c1OCO2
- remaining activity: 102% (inactive)

Structure (SMILES): O=C(NCCN1CCC2(CC1)C(=O)NCN2c1cccc(F)c1)c1cccc2ccccc12
- remaining activity: 102% (inactive)

Structure (SMILES): C[C@@H](CN1CCC2(CC1)C(=O)NCN2c1cccc(F)c1)NC(=O)c1cccc2ccccc12
- remaining activity: 64.5%

Structure (SMILES): O=C(c1ccc(F)cc1)N(CCN1CCC2(CC1)C(=O)NCN2c1cccc(F)c1)C(=O)c1ccc(F)cc1
- remaining activity: 109% (inactive)

Structure (SMILES): C[C@@H](CN1CCC2(CC1)C(=O)NCN2c1cccc(F)c1)NC(=O)c1ccc(F)cc1F
- remaining activity: 28.8%

Structure (SMILES): C[C@@H](CN1CCC2(CC1)C(=O)NCN2c1cccc(F)c1)NC(=O)c1ccc(Br)cc1
- remaining activity: 10.2%

Structure (SMILES): C[C@@H](CN1CCC2(CC1)C(=O)NCN2c1cccc(F)c1)NC(=O)c1cccc(C(F)(F)F)c1
- remaining activity: 82.3% (inactive)

Structure (SMILES): O=C(NCCN1CCC2(CC1)C(=O)NCN2c1cccc(F)c1)c1ccc(Cl)cc1Cl
- remaining activity: 107% (inactive)

Structure (SMILES): O=C(NCCN1CCC2(CC1)C(=O)NCN2c1cccc(F)c1)c1ccccn1
- remaining activity: 93.5% (inactive)

Structure (SMILES): COc1cc(C(=O)N[C@@H](C)CN2CCC3(CC2)C(=O)NCN3c2cccc(F)c2)cc(OC)c1OC
- remaining activity: 9.86%

Structure (SMILES): O=C(NCCN1CCC2(CC1)C(=O)NCN2c1cccc(F)c1)c1ccc(Br)cc1
- remaining activity: 98.5% (inactive)

Structure (SMILES): C[C@@H](CN1CCC2(CC1)C(=O)NCN2c1cccc(F)c1)NC(=O)c1ccc(F)c(F)c1
- remaining activity: 10.1%

Structure (SMILES): O=C(NCCN1CCC2(CC1)C(=O)NCN2c1cccc(F)c1)c1cccc(C(F)(F)F)c1
- remaining activity: 94.8% (inactive)

Structure (SMILES): C[C@@H](CN1CCC2(CC1)C(=O)NCN2c1cccc(F)c1)NC(=O)c1ccc(F)cc1
- remaining activity: 24%

Structure (SMILES): C[C@@H](CN1CCC2(CC1)C(=O)NCN2c1cccc(F)c1)NC(=O)Cc1ccc(F)cc1
- remaining activity: 102% (inactive)

Structure (SMILES): O=C(NCCN1CCC2(CC1)C(=O)NCN2c1cccc(F)c1)c1ccc(F)cc1
- remaining activity: 102% (inactive)

Structure (SMILES): O=C(Cc1ccc(F)cc1)NCCN1CCC2(CC1)C(=O)NCN2c1cccc(F)c1
- remaining activity: 99.3% (inactive)

Structure (SMILES): C[C@@H](CN1CCC2(CC1)C(=O)NCN2c1cccc(F)c1)NC(=O)c1ccc(Cl)cc1Cl
- remaining activity: 71.6%

Structure (SMILES): O=C(NCCN1CCC2(CC1)C(=O)NCN2c1cccc(F)c1)c1ccccc1I
- remaining activity: 99.7% (inactive)

Structure (SMILES): C[C@@H](CN1CCC2(CC1)C(=O)NCN2c1cccc(F)c1)NC(=O)c1c(F)ccc(F)c1Cl
- remaining activity: 81.7% (inactive)

Structure (SMILES): O=C(NCCN1CCC2(CC1)C(=O)NCN2c1cccc(F)c1)c1cccc([N+](=O)[O-])c1
- remaining activity: 101% (inactive)

Structure (SMILES): C[C@@H](CN1CCC2(CC1)C(=O)NCN2c1cccc(F)c1)NC(=O)c1ccccc1I
- remaining activity: 91.6% (inactive)

Structure (SMILES): O=C(NCCN1CCC2(CC1)C(=O)NCN2c1cccc(F)c1)c1ccc(F)cc1F
- remaining activity: 99% (inactive)

Structure (SMILES): O=C(NCCN1CCC2(CC1)C(=O)NCN2c1cccc(F)c1)c1c(F)ccc(F)c1Cl
- remaining activity: 106% (inactive)

Structure (SMILES): C[C@@H](CN1CCC2(CC1)C(=O)NCN2c1cccc(F)c1)NC(=O)c1cccc(F)c1
- remaining activity: 45.7%

Structure (SMILES): C[C@@H](CN1CCC2(CC1)C(=O)NCN2c1cccc(F)c1)NC(=O)c1cccc([N+](=O)[O-])c1
- remaining activity: 28.6%
